Experimental findings from paper PMC8533206 (Antioxidants, 2021) are described below.

Values joined by “and” are separate entries in the source; they are usually repeats but may differ in a detail not shown here. Identical values can stand only once. “Also recorded” adds a separate entry of the source.

Data set [1] deals with PC12 cells. As to the kind of experiment: Rotenone-induced ROS generation in PC12 cells (H2-DCFDA). The format is cell-based, rat. The conditions noted are these: 10 μM compound, rotenone 1 μM 20 h. The procedure: (§1) The involvement of oxidative stress in the observed reduction in cell viability was investigated using the fluorescent dye H2-DCFDA as described previously. Briefly, cells were loaded with 10 μM H2-DCFDA for 30 min at 37 °C. Subsequently, cells were exposed for 4 h to 10 μM of test compounds followed by the addition of 50 μM 6-OHDA or 1 μM rotenone for 20 h, and fluorescence was measured spectrophotometrically at 488/520 nm in a microplate reader (SpectraMax M2e). N-acetylcysteine (NAC, 5 mM) was included as a […] control for oxidative stress.

The test system of data set [2] is PC12 cells. Put plainly: Cytotoxicity over PC12 cells (MTT assay). In kind it is cell-based. To be noted: 24 h. The procedure: PC12 cells were routinely maintained in RPMI-1640 media containing 100 IU/mL penicillin, and 100 μg/mL streptomycin supplemented by 10% heat-inactivated HS, 5% FBS in a humidified incubator containing 5% CO2 and 95% air at 37 °C [25]. The cell culture media was changed every two days. To perform experiments, cells were plated on poly-D-lysine/laminin-coated 24-well plates at a density of 3 × 10^5 cells/well and incubated for at least 24 h to allow cell adhesion.
To examine the effects of the test compounds on cell survival, cells were incubated in low serum media (1% HS, 1% FBS, 100 IU/mL penicillin, and 100 μg/mL streptomycin) with test compounds at the concentrations of 10 and 30 μM or an equivalent volume of vehicle control (DMSO at the final concentration of 0.3%) for 24 h. The media containing test compounds was sonicated at room temperature for 30 min to assure adequate dissolution in the media. To assess the protective effects of the test compounds on 6-OHDA- or rotenone-induced cell death in PC12 cells, cells were pre-treated with the compounds or rasagiline for 4 h. The pre-treated cells were then exposed to 6-OHDA (50 μM) or rotenone (1 μM) for 24 h.
After the desired treatment, cell viability was determined by MTT assay as described previously, with slight modification. Briefly, MTT was added to the cells at the final concentration of 0.5 mg/mL, followed by incubation for 3 h at 37 °C. The supernatants were carefully removed, and then 300 μL of DMSO was added to each well to dissolve formazan precipitate. The absorbance of the dissolved solution was measured at 550 nm using a microplate reader (SpectraMax M2e, Molecular Devices, Sunnyvale, CA, USA). The cell viability was presented as the percentage of the absorbance measured in the vehicle-treated control cells. […] Inhibition (%) = 100 × (Abssample − Abs6-OHDA or rotenone)/(Abscontrol − Abs6-OHDA or rotenone)

Data set [3] concerns the target T1, Human recombinant MAO-B (hMAO-B) (Homo sapiens, UniProt P27338).
T1 construct: purchased Sigma-Aldrich; host or cells: insect cells
T1 sequence (P27338 1-520): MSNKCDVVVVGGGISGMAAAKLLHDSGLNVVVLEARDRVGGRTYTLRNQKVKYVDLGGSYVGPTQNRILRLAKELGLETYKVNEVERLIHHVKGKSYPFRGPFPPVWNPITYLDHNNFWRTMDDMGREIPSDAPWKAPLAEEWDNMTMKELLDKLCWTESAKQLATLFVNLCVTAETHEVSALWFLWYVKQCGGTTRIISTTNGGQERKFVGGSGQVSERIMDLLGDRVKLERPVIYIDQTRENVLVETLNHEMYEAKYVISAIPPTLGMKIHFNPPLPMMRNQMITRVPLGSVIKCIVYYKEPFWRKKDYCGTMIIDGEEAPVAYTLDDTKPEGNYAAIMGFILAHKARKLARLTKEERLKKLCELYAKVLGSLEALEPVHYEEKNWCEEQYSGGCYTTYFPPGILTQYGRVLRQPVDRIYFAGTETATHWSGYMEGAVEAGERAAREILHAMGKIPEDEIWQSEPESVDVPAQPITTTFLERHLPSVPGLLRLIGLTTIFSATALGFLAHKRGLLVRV
Put plainly: MAO-B inhibition assay (Amplex Red fluorescence, benzylamine substrate). In kind it is biochemical. To be noted: for IC50: five doses 10, 1, 0.1, 0.01, 0.001 μM, triplicate; for Selectivity Index (SI): ratio of IC50 (MAO-A)/IC50 (MAO-B); for inhibition at 10 µM / % Inhibition of MAO-B at 10 µM: single dose 10 µM. The procedure: The biological evaluation of the tested compounds over both MAO-A and MAO-B was performed following the previously reported method. The MAO activity was measured in relative fluorescence units (RFU) evoked by peroxidase-catalyzed oxidation of Amplex Red® to resorufin, in which H2O2 generated by MAO reaction was used as the electron donor. Human recombinant MAO-A (hMAO-A) and MAO-B (hMAO-B) enzymes expressed in insect cells were obtained from Sigma-Aldrich. The 2 μL of test compound in DMSO (final concentration: 1–10 μM) was treated with 98 μL of hMAO enzyme solution in 50 mM sodium phosphate buffer (pH 7.4, final protein amounts: ~1.25 μg protein/well for MAO-A and ~2.5 μg protein/well for MAO-B) on 96-well black plate and incubated for 15 min at 37 °C. Then, 100 μL of reaction working solution which is a mixed solution of 400 μM Amplex Red® (Cayman, final concentration: 200 μM), 2 U/mL horseradish peroxidase (Sigma-Aldrich, final concentration: 1 U/mL) and 2 mM substrate (p-tyramine for MAO-A, benzylamine for MAO-B, Sigma-Aldrich, final concentration: 1 mM) in 50 mM sodium phosphate buffer (pH 7.4) were added and incubated for 20 min at 37 °C in the dark. The fluorescent intensity was quantified using a microplate reader (SpectraMax®i3, Molecular Device) with an excitation at 545 nm and an emission at 590 nm. The 50% inhibitory concentrations (IC50) of compounds were determined as the mean ± S.E.M. in triplicate from the dose-response inhibition curves using SigmaPlot® 13.0 (Systat Software Inc., San Jose, CA, USA).

In data set [4] the test system is PC12 cells. Put plainly: 6-OHDA-induced ROS generation in PC12 cells (H2-DCFDA). The format is cell-based, rat. The conditions noted are these: 10 μM compound, 6-OHDA 50 μM 20 h. The method, then:
as §1

Data set [5] in a line: DPPH radical scavenging activity (cell-free). To be noted: for DPPH radical scavenging activity (in words): cell-free, DPPH 150 µM. The procedure:
DPPH radical scavenging activities of test compounds were assessed as previously described. Briefly, the reaction mixture containing desired concentrations of test compounds and DPPH radical solution (150 µM) prepared in 95% methanol was incubated for 30 min at 37 °C. The absorbance of the mixture was measured at 520 nm in a microplate reader (SpectraMax M2e). The radical scavenging activity was calculated using the following equation:DPPH radical scavenging activity (%) = 100 × (Abscontrol − Abssample)/Abscontrol where Abscontrol and Abssample represent the absorbances in the absence and in the presence of test compounds, respectively.

Take `COC(=O)c1ccc2c(ccn2C(=O)c2ccc(Cl)c(Cl)c2)c1` [Compound 7b, Methyl 1-(3,4-dichlorobenzoyl)-1H-indole-5-carboxylate]: the “Effect on rotenone-induced intracellular ROS production” value in data set [1] was “attenuated”. For the same compound, the “Cytotoxic effect on PC12 cell viability” value in data set [2] (10 μM) was “did not show any cytotoxic effects”. Besides, in data set [3], the IC50 is 330 nM and 328 nM; the “Selectivity Index (SI)” value was greater than 305; the inhibition at 10 µM was determined as 84.1%. In data set [4], the “Effect on 6-OHDA-induced ROS generation” value was “significantly decreased”. Besides, the “DPPH radical scavenging activity (in words)” value in data set [5] is listed as “mild DPPH radical scavenging activities”.

Take `O=C(Nc1ccc(I)cc1)c1ccc2[nH]ccc2c1` [Compound 8a, N-(4-iodophenyl)-1H-indole-5-carboxamide]: in data set [1], the “Effect on rotenone-induced intracellular ROS production” value was “not effective”. Further, in data set [2] (10 μM), the “Cytotoxic effect on PC12 cell viability” value was “did not show any cytotoxic effects”. For the same compound, in data set [3], the half-maximal inhibitory concentration (IC50) came to 27.4 nM, the “Selectivity Index (SI)” value is listed as greater than 3649, the “% Inhibition of MAO-B at 10 µM” value amounted to 99.3 ± 0.0% and the inhibition at 10 µM was greater than 99%. In data set [4], the “Effect on 6-OHDA-induced ROS generation” value is recorded as “not effective”.

Take `O=C(Nc1ccc(Br)cc1)c1ccc2[nH]ccc2c1` [Compound 8b, N-(4-bromophenyl)-1H-indole-5-carboxamide]: in data set [1], the “Effect on rotenone-induced intracellular ROS production” value is listed as “attenuated”. Moreover, the “Cytotoxic effect on PC12 cell viability” value in data set [2] (10 μM) is reported as “did not show any cytotoxic effects”. For the same compound, the “Cytotoxic effect on PC12 cell viability” value in data set [2] (30 μM) was “significant reduction in cell viability”. In data set [3], the half-maximal inhibitory concentration (IC50) was 30 nM and 30.5 nM; the “Selectivity Index (SI)” value is reported as greater than 3278; the “% Inhibition of MAO-B at 10 µM” value is on record as 99.4 ± 0.0%; the inhibition at 10 µM is greater than 99%. In addition, in data set [4], the “Effect on 6-OHDA-induced ROS generation” value is “significantly decreased”. Besides, the “Maximal DPPH radical scavenging effect” value in data set [5] (30 and 100 µM) is “approximately 10%”. Also, in data set [5], the “DPPH radical scavenging activity (in words)” value is recorded as “mild DPPH radical scavenging activity; also recorded: mild DPPH radical scavenging activities”.

Turning to `O=C(Nc1ccc2c(c1)OCO2)c1ccc2[nH]ccc2c1` [Compound 8e, N-(benzo[d][1,3]dioxol-5-yl)-1H-indole-5-carboxamide], the “Effect on rotenone-induced intracellular ROS production” value in data set [1] is on record as “attenuated”. The “Cytotoxic effect on PC12 cell viability” value in data set [2] (10 μM) is “did not show any cytotoxic effects”. Further, in data set [3], the IC50 is 450 nM and 453 nM; the “Selectivity Index (SI)” value was greater than 220; the inhibition at 10 µM worked out at 89.6 ± 0.4%. For the same compound, the “Effect on 6-OHDA-induced ROS generation” value in data set [4] was “significantly decreased”. In addition, in data set [5], the “DPPH radical scavenging activity (in words)” value is on record as “mild DPPH radical scavenging activities”.
